What was measured:
[1] = molecular target: Tyrosine-protein kinase JAK1 (Homo sapiens) (UniProt P23458); test: Inhibition of JAK1 domain1 (QLASALSYLEDKDLVHGNVCTKNLLLAR) in human PBMC at 0.1 uM
[2] = molecular target: Calcium/calmodulin-dependent protein kinase type II subunit beta (Homo sapiens) (UniProt Q13554); test: Inhibition of CaMK2b labeling at conserved Lys2 (DLKPENLLLASK) in human PBMC at 1 uM
[3] = molecular target: Serine/threonine-protein kinase WNK1 (Homo sapiens) (UniProt Q9H4A3); test: Inhibition of Wnk1 activation Loop (IGDLGLATLKR) in human PBMC at 0.1 uM; conditions: pooled result: one value given for 4 cell lines, strains, targets or settings
Sequence of Serine/threonine-protein kinase WNK1 (Homo sapiens) (Q9H4A3 whole entry, looked up): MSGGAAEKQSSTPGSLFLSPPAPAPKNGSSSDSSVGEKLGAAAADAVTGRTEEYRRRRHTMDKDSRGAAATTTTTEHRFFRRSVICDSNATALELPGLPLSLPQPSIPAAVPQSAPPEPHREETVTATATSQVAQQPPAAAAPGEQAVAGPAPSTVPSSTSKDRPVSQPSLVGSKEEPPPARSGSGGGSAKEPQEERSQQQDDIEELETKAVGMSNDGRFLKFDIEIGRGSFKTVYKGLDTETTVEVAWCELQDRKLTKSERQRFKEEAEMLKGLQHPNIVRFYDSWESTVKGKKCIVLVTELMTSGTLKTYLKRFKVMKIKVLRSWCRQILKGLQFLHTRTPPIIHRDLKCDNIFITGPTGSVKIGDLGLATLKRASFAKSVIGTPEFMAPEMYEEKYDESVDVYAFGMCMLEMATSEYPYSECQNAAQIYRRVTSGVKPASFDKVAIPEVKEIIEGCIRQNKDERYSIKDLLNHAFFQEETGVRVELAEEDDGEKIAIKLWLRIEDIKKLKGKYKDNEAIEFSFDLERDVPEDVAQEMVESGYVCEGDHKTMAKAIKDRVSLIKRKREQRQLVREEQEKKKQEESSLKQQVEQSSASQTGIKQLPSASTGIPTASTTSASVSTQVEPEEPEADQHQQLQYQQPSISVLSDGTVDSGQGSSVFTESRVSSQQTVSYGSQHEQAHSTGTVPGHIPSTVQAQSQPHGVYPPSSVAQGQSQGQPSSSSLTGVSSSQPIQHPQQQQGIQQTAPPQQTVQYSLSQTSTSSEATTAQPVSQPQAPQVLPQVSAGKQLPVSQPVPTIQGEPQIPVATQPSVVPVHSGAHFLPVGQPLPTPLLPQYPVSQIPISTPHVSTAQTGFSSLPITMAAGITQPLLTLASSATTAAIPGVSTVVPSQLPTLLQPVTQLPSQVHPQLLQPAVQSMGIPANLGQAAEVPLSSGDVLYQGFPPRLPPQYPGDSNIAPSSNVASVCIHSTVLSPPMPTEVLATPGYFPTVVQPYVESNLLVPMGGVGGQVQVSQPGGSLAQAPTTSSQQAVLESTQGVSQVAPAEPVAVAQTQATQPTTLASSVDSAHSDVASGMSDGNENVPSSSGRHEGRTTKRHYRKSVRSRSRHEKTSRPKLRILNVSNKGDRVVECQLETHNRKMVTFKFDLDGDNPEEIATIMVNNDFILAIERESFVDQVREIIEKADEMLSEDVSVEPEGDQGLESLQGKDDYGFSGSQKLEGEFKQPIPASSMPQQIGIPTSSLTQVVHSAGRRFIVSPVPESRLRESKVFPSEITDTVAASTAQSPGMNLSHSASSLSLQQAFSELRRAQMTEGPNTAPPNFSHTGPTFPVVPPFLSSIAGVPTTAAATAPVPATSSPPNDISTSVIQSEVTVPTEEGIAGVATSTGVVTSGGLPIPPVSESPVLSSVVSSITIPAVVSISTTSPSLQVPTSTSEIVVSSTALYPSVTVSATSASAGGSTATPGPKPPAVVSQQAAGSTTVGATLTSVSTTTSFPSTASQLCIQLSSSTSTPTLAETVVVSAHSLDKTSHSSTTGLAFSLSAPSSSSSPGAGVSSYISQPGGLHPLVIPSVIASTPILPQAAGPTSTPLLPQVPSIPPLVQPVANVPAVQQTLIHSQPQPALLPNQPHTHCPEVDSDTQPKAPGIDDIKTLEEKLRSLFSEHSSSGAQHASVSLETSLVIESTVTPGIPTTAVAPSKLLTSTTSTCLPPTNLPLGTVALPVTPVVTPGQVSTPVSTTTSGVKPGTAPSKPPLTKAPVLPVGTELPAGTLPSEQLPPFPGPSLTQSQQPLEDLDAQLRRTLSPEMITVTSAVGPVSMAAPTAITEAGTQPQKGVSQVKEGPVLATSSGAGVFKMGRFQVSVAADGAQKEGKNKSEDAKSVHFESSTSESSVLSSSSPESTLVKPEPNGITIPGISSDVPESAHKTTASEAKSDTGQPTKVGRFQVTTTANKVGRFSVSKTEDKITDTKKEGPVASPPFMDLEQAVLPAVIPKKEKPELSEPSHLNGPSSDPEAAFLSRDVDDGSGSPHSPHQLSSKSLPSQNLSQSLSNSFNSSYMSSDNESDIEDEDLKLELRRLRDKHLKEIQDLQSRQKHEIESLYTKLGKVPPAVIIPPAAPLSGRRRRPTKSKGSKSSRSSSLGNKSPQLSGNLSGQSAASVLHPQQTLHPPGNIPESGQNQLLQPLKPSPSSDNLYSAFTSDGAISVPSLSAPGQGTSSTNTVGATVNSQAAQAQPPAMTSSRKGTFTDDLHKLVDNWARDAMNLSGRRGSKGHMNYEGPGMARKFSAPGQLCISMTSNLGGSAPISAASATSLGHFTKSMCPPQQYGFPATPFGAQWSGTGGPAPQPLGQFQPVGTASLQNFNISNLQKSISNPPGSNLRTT

[4] = molecular target: MAP/microtubule affinity-regulating kinase 3 (Homo sapiens) (UniProt P27448); test: Inhibition of MARK3 conserved Lys1 (EVAIKIIDK) in human PBMC at 0.1 uM
Sequence of MAP/microtubule affinity-regulating kinase 3 (Homo sapiens) (P27448 whole entry, looked up): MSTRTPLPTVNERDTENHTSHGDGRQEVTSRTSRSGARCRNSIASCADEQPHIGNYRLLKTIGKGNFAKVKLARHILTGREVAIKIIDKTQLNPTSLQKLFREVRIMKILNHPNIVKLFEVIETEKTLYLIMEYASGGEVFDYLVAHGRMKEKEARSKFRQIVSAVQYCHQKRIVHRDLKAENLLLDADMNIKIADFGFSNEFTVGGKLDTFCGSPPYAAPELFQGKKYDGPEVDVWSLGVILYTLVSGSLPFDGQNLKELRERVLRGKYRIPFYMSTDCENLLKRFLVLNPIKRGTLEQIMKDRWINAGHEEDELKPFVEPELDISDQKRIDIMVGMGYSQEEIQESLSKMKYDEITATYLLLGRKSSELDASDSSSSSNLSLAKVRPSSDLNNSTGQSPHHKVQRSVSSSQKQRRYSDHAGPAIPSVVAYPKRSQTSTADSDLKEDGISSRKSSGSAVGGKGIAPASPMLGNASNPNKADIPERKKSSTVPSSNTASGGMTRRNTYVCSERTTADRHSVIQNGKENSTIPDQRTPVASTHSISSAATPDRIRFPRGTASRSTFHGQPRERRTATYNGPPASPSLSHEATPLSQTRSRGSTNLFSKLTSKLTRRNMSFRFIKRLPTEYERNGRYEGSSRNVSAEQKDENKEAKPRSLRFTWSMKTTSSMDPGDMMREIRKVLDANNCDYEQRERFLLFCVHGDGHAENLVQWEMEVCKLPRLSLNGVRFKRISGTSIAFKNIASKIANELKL

[5] = molecular target: T1, Inhibitor of nuclear factor kappa-B kinase subunit epsilon (Homo sapiens) (UniProt Q14164); test: Inhibition of IKKe conserved Lys1 (SGELVAVKVFNTTSYLRPR) in human PBMC at 0.1 uM
T1 sequence (whole entry): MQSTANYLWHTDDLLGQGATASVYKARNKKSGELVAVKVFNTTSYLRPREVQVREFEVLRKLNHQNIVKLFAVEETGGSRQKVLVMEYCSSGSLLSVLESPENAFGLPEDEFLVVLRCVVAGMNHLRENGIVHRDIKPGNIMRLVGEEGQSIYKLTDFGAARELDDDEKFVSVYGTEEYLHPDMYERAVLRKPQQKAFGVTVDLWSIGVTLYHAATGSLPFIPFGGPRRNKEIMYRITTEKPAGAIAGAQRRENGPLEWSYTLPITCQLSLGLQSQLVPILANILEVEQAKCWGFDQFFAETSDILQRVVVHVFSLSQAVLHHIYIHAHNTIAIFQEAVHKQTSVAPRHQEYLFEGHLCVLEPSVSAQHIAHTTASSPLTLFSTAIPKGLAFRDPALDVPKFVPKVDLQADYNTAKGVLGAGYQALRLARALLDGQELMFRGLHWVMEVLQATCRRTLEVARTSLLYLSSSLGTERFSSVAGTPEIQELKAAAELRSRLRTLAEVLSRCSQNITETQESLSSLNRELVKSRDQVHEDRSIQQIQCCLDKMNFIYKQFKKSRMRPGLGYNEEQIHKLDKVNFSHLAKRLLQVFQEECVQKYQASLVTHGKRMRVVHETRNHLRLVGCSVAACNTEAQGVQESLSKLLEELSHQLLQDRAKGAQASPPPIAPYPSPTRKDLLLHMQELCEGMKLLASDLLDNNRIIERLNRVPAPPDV

[6] = molecular target: 5'-AMP-activated protein kinase catalytic subunit alpha-2 (Homo sapiens) (UniProt P54646); test: Inhibition of AMPKa2 labeling at conserved Lys1 (VAVKILNR) in human PBMC at 1 uM
[7] = molecular target: Serine/threonine-protein kinase 26 (Homo sapiens) (UniProt Q9P289); test: Inhibition of MST4 conserved Lys2 (DIKAANVLLSEQGDVK) in human PBMC at 0.1 uM
Sequence of Serine/threonine-protein kinase 26 (Homo sapiens) (Q9P289 2-416 limits assumed): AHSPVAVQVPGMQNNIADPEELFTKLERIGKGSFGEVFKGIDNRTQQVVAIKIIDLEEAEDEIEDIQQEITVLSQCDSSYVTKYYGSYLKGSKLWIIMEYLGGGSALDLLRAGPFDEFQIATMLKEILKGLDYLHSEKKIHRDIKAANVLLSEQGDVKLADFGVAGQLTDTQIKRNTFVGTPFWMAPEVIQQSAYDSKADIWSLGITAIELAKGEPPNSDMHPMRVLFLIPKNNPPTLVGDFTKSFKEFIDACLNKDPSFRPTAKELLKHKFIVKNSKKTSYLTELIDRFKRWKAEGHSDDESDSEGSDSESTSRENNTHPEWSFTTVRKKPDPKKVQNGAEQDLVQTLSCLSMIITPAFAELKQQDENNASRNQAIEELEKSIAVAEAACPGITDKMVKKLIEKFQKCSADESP

[8] = molecular target: Tyrosine-protein kinase Fer (Homo sapiens) (UniProt P16591); test: Inhibition of FER conserved Lys2 (QEDGGVYSSSGLKQIPIK) in human PBMC at 1 uM
[9] = molecular target: T2, Mitogen-activated protein kinase kinase kinase 6 (Homo sapiens) (UniProt O95382); test: Inhibition of MAP3K6 conserved Lys1 (IAIKEIPER) in human PBMC at 1 uM
T2 sequence (whole entry): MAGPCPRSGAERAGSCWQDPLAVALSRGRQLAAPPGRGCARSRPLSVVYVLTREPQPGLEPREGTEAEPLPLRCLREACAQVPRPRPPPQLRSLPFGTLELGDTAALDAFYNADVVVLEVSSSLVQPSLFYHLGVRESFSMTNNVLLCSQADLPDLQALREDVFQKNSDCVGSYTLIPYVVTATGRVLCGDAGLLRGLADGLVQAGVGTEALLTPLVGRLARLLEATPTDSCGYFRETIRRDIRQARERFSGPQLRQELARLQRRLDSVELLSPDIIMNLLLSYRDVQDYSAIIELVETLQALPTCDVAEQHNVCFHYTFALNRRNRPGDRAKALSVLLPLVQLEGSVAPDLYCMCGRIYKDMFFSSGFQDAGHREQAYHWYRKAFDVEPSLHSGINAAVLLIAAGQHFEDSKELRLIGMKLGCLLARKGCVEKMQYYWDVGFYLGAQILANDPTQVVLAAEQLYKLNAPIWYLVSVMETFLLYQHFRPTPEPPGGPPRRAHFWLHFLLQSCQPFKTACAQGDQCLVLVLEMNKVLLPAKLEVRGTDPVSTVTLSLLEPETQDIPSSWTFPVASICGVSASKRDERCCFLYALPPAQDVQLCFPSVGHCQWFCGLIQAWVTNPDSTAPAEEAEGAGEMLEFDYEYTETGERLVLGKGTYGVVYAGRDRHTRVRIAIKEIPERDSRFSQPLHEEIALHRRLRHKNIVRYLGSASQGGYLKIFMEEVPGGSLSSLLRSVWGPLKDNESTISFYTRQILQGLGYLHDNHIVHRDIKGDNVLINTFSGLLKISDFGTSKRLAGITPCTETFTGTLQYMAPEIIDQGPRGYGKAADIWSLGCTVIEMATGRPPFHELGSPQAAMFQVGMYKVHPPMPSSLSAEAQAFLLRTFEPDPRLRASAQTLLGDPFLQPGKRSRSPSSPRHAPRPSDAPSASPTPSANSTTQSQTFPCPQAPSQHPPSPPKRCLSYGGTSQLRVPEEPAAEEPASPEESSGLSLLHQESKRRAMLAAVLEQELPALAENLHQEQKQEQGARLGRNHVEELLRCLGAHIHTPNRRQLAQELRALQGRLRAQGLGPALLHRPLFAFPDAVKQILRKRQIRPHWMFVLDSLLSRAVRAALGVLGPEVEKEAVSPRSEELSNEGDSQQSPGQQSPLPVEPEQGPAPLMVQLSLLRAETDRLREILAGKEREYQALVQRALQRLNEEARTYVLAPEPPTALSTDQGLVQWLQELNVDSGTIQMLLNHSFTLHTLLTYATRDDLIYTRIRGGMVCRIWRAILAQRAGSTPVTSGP

[10] = molecular target: PAN2-PAN3 deadenylation complex subunit PAN3 (Homo sapiens) (UniProt Q58A45); test: Inhibition of PAN3 Protein Kinase Domain (VMDPTKILITGK) in human PBMC at 0.1 uM
Sequence of PAN2-PAN3 deadenylation complex subunit PAN3 (Homo sapiens) (Q58A45 whole entry, the tested form may be a part, one chain of several): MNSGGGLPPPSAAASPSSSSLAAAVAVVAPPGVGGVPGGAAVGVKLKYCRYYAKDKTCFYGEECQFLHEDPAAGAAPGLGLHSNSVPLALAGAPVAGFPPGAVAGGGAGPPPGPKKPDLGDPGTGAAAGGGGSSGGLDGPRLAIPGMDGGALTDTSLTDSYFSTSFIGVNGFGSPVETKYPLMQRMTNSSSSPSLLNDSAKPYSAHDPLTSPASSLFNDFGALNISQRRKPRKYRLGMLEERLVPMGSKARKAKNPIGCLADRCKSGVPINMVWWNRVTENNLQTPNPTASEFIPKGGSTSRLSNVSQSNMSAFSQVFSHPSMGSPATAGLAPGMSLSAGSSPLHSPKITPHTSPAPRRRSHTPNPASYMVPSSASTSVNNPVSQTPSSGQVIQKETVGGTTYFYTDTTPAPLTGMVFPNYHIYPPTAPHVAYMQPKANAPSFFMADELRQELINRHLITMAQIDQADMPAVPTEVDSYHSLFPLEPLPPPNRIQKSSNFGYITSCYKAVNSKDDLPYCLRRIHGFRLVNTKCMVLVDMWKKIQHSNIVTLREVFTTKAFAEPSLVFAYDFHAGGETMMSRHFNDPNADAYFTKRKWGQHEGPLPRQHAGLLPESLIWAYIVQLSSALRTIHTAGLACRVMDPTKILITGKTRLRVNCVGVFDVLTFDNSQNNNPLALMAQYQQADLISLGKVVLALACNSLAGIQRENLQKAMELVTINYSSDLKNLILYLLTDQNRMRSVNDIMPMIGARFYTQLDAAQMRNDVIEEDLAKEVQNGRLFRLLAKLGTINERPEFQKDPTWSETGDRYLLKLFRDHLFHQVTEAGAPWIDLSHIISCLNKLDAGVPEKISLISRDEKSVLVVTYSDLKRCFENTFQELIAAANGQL

[11] = molecular target: Myosin light chain kinase, smooth muscle (Homo sapiens) (UniProt Q15746); test: Inhibition of smMLCK conserved Lys2 (QGIVHLDLKPENIMCVNK) in human PBMC at 1 uM
[12] = molecular target: Serine/threonine-protein kinase 32C (Homo sapiens) (UniProt Q86UX6); test: Inhibition of YANK3 conserved Lys2 (DVKPDNILLDER) in human PBMC at 1 uM
Sequence of Serine/threonine-protein kinase 32C (Homo sapiens) (Q86UX6 whole entry): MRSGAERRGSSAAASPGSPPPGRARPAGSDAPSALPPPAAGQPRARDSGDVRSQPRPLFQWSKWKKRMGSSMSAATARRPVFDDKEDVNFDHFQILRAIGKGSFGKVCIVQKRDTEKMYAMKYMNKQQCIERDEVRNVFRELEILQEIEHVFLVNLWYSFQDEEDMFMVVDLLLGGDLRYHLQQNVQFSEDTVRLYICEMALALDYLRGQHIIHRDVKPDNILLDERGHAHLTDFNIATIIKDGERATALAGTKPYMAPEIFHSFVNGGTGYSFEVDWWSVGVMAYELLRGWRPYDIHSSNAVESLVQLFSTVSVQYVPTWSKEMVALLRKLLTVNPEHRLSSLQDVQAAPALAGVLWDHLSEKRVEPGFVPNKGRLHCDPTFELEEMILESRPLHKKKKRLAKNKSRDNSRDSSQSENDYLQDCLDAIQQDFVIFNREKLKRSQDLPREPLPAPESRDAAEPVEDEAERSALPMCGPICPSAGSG

CC(C)n1cc(-c2cc(-c3ccc(CN4CCOCC4)cc3)cnc2N)nn1
inhibition [1]: 16.4% | inhibition [2]: -0.4% | inhibition [3]: 21.4% | inhibition [4]: -6.7% | inhibition [5]: 6.2% | inhibition [6]: 17.3% | inhibition [7]: 0.5% | inhibition [8]: 5.2% | inhibition [9]: -3.3% | inhibition [10]: 6.2% | inhibition [11]: 3.2% | inhibition [12]: -2.1%

Source: ChEMBL document CHEMBL4043168, “The design and SAR of a novel series of 2-aminopyridine based LRRK2 inhibitors” (Bioorg Med Chem Lett, 2017)
